Assay results: US10450306B2, “Isoxazole analogs as FXR agonists and methods of use thereof” (Enanta Pharmaceuticals, Inc., priority 2016, dated 2019)

Molecular target: T1, human FXR (NR1H4) (Homo sapiens, UniProt Q96RI1)
T1 construct: host or cells: CHO (Chinese hamster ovary) reporter cells
T1 sequence (Q96RI1 1-486): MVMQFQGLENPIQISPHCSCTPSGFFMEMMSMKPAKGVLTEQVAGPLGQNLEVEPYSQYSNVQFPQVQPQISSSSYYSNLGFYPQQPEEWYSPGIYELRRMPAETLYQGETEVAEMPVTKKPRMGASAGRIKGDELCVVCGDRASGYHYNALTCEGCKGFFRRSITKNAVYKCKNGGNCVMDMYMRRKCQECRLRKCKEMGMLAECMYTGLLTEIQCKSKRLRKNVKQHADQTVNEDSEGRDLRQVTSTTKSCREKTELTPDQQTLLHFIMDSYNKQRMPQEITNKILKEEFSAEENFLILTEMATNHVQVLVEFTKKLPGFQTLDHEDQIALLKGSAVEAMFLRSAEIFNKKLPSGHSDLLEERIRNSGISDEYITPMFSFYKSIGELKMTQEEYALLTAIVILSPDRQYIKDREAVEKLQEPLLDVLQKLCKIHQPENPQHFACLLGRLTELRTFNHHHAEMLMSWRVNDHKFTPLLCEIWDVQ
Test: Human FXR (NR1H4) Assay: Gal4 promoter driven luciferase reporter transactivation in CHO cells (Indigo Bioscience kit IB00601); for Efficacy (%): efficacy normalized to CDCA set as 100%
Type: cell-based
Settings: for Emax: CHO, read-out: Efficacy (%); for EC50: Human FXR (NR1H4) reporter assay, potency ranges
Procedure, shortened: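 Luminescence read-out after 22 h exposure quantified FXR transactivation; compounds were tested at several doses, 0.2% DMSO, in CHO cells engineered with human NR1H4 and a luciferase gene linked to an FXR-responsive promoter.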

Compound | Emax | EC50
COC(=O)c1cc(F)c2nc(N3C4CCC3CC(NCc3c(-c5ccccc5OC(F)(F)F)noc3C3CC3)C4)sc2c1 (centres unmarked) [Example 403] | 61% | 1 to 100 nM
O=C(O)c1cc(F)c2nc(N3C4CCC3CC(NCc3c(-c5ccccc5OC(F)(F)F)noc3C3CC3)C4)sc2c1 (centres unmarked) [Example 404] | 88% | 1 to 100 nM
COC(=O)c1cc(OC(C)C)c2nc(N3C4CCC3CC(NCc3c(-c5ccccc5OC(F)(F)F)noc3C3CC3)C4)sc2c1 (centres unmarked) [Example 413] | 118% | 1 to 100 nM
CC(C)Oc1cc(C(=O)O)cc2sc(N3C4CCC3CC(NCc3c(-c5ccccc5OC(F)(F)F)noc3C3CC3)C4)nc12 (centres unmarked) [Example 414] | 121% | < 1 nM
O=C(O)c1ccc2nc(N3C4CCC3CC(NCc3c(-c5ccccc5OC(F)(F)F)noc3C3CC3)C4)ccc2c1 (centres unmarked) [Example 514] | 100% | 1 to 100 nM
O=C(O)c1ccc(N2C3CCC2CC(NCc2c(-c4ccccc4OC(F)(F)F)noc2C2CC2)C3)nc1 (centres unmarked) [Example 597] | 83.5% | 1 to 100 nM
O=C(O)c1ccc2nc(N3CCC(NCc4c(-c5ccccc5OC(F)(F)F)noc4C4CC4)CC3)sc2c1 [Example 638] | 107% | 100 to 1000 nM
COC(=O)c1cc(OC(C)C)c2nc(N3CCC(NCc4c(-c5ccccc5OC(F)(F)F)noc4C4CC4)CC3)sc2c1 [Example 639] | 13% | 100 to 1000 nM
CC(C)Oc1cc(C(=O)O)cc2sc(N3CCC(NCc4c(-c5ccccc5OC(F)(F)F)noc4C4CC4)CC3)nc12 [Example 640] | 92.3% | 1 to 100 nM
COC(=O)c1cc(F)c2nc(N3CCC(NCc4c(-c5ccccc5OC(F)(F)F)noc4C4CC4)CC3)sc2c1 [Example 641] | 40% | 100 to 1000 nM
O=C(O)c1cc(F)c2nc(N3CCC(NCc4c(-c5ccccc5OC(F)(F)F)noc4C4CC4)CC3)sc2c1 [Example 642] | 85.3% | 100 to 1000 nM
COC(=O)c1cc(C2CC2)c2nc(N3C4CCC3CC(NCc3c(-c5ccccc5OC(F)(F)F)noc3C3CC3)C4)sc2c1 (centres unmarked) [Example 643] | 52% | 1 to 100 nM
O=C(O)c1cc(C2CC2)c2nc(N3C4CCC3CC(NCc3c(-c5ccccc5OC(F)(F)F)noc3C3CC3)C4)sc2c1 (centres unmarked) [Example 644] | 94.5% | < 1 nM
O=C(O)c1cc(F)c(N2C3CCC2CC(NCc2c(-c4ccccc4OC(F)(F)F)noc2C2CC2)C3)c(F)c1 (centres unmarked) [Example 646] | 105% | 1 to 100 nM
O=C(NS(=O)(=O)C1CC1)c1cnc2nc(N3C4CCC3CC(NCc3c(-c5ccccc5OC(F)(F)F)noc3C3CC3)C4)sc2n1 (centres unmarked) [Example 695] | 75% | 1 to 100 nM
CCOC(=O)c1ccc2nc(N3C4CCC3CC(NCc3c(-c5ccccc5OC(F)(F)F)noc3C3CC3)C4)sc2c1 (centres unmarked) [Example 696] | 59.1% | 1 to 100 nM
CC1(S(=O)(=O)NC(=O)c2ccc3nc(N4C5CCC4CC(NCc4c(-c6ccccc6OC(F)(F)F)noc4C4CC4)C5)sc3c2)CC1 (centres unmarked) [Example 702] | 113% | 1 to 100 nM
O=C(NS(=O)(=O)C1CC1)c1ccc2nc(N3CCC(NCc4c(-c5ccccc5OC(F)(F)F)noc4C4CC4)CC3)sc2c1 [Example 791] | 63% | > 1000 nM
CC1(S(=O)(=O)NC(=O)c2ccc3nc(N4CCC(NCc5c(-c6ccccc6OC(F)(F)F)noc5C5CC5)CC4)sc3c2)CC1 [Example 900-1] | 80.5% | 100 to 1000 nM
CC1(S(=O)(=O)NC(=O)c2cc(F)c3nc(N4C5CCC4CC(NCc4c(-c6ccccc6OC(F)(F)F)noc4C4CC4)C5)sc3c2)CC1 (centres unmarked) [Example 900-2] | 109% | 1 to 100 nM
O=C(NS(=O)(=O)C1CC1)c1cc(F)c2nc(N3CCC(NCc4c(-c5ccccc5OC(F)(F)F)noc4C4CC4)CC3)sc2c1 [Example 900-3] | 44.8% | 100 to 1000 nM
CC1(S(=O)(=O)NC(=O)c2cc(F)c3nc(N4CCC(NCc5c(-c6ccccc6OC(F)(F)F)noc5C5CC5)CC4)sc3c2)CC1 [Example 900-4] | 84.8% | > 1000 nM
CC(C)Oc1cc(C(=O)NS(=O)(=O)C2CC2)cc2sc(N3CCC(NCc4c(-c5ccccc5OC(F)(F)F)noc4C4CC4)CC3)nc12 [Example 900-5] | 68.5% | 100 to 1000 nM
CC(C)Oc1cc(C(=O)NS(=O)(=O)C2(C)CC2)cc2sc(N3CCC(NCc4c(-c5ccccc5OC(F)(F)F)noc4C4CC4)CC3)nc12 [Example 900-6] | 112% | 1 to 100 nM
CC1(S(=O)(=O)NC(=O)c2cc(C3CC3)c3nc(N4C5CCC4CC(NCc4c(-c6ccccc6OC(F)(F)F)noc4C4CC4)C5)sc3c2)CC1 (centres unmarked) [Example 900-9] | 122% | < 1 nM

Compound | Emax | EC50
O=C(NS(=O)(=O)C1CC1)c1cc(F)c(N2C3CCC2CC(NCc2c(-c4ccccc4OC(F)(F)F)noc2C2CC2)C3)c(F)c1 (centres unmarked) [Example 900-11] | 70.5% | 1 to 100 nM
CC1(S(=O)(=O)NC(=O)c2cc(F)c(N3C4CCC3CC(NCc3c(-c5ccccc5OC(F)(F)F)noc3C3CC3)C4)c(F)c2)CC1 (centres unmarked) [Example 900-12] | 67% | 1 to 100 nM
O=C(NS(=O)(=O)C1CC1)c1ccc(N2C3CCC2CC(NCc2c(-c4ccccc4OC(F)(F)F)noc2C2CC2)C3)nc1 (centres unmarked) [Example 900-13] | 59.5% | 1 to 100 nM
CC1(S(=O)(=O)NC(=O)c2ccc(N3C4CCC3CC(NCc3c(-c5ccccc5OC(F)(F)F)noc3C3CC3)C4)nc2)CC1 (centres unmarked) [Example 900-14] | 46.5% | 100 to 1000 nM
O=C(NS(=O)(=O)C1CC1)c1ccc2nc(N3C4CCC3CC(NCc3c(-c5ccccc5OC(F)(F)F)noc3C3CC3)C4)ccc2c1 (centres unmarked) [Example 900-15] | 82.5% | 1 to 100 nM
CC1(S(=O)(=O)NC(=O)c2ccc3nc(N4C5CCC4CC(NCc4c(C6CCC7(CC6)CC7)noc4C4CC4)C5)sc3c2)CC1 (centres unmarked) [Example 1202] | 85.5% | 1 to 100 nM
CC(C)Oc1cc(C(=O)O)cc2sc(N3C4CCC3CC(NCc3c(-c5ccccc5C(F)(F)F)noc3C3CC3)C4)nc12 (centres unmarked) [Example 1401] | 125% | 100 to 1000 nM
CC(C)Oc1cc(C(=O)NS(=O)(=O)C2(C)CC2)cc2sc(N3C4CCC3CC(NCc3c(-c5ccccc5C(F)(F)F)noc3C3CC3)C4)nc12 (centres unmarked) [Example 1402] | 136% | 1 to 100 nM
COC(=O)c1cc(OC(C)C)c2nc(N3C4CCC3CC(NCc3c(-c5ccccc5C(F)(F)F)noc3C3CC3)C4)sc2c1 (centres unmarked) [Example 1403] | 119% | 1 to 100 nM
COC(=O)c1cc(C)c2nc(N3C4CCC3CC(NCc3c(-c5ccccc5C(F)(F)F)noc3C3CC3)C4)sc2c1 (centres unmarked) [Example 1404] | 46% | 100 to 1000 nM
Cc1cc(C(=O)O)cc2sc(N3C4CCC3CC(NCc3c(-c5ccccc5C(F)(F)F)noc3C3CC3)C4)nc12 (centres unmarked) [Example 1405] | 125% | 1 to 100 nM
Cc1cc(C(=O)NS(=O)(=O)C2(C)CC2)cc2sc(N3C4CCC3CC(NCc3c(-c5ccccc5C(F)(F)F)noc3C3CC3)C4)nc12 (centres unmarked) [Example 1406] | 133% | < 1 nM
COC(=O)c1cc(F)c2nc(N3C4CCC3CC(NCc3c(-c5ccccc5C(F)(F)F)noc3C3CC3)C4)sc2c1 (centres unmarked) [Example 1407] | 92.5% | 1 to 100 nM
O=C(O)c1cc(F)c2nc(N3C4CCC3CC(NCc3c(-c5ccccc5C(F)(F)F)noc3C3CC3)C4)sc2c1 (centres unmarked) [Example 1408] | 103% | 1 to 100 nM
COC(=O)c1cc(C2CC2)c2nc(N3C4CCC3CC(NCc3c(-c5ccccc5C(F)(F)F)noc3C3CC3)C4)sc2c1 (centres unmarked) [Example 1409] | 52% | 1 to 100 nM
O=C(O)c1cc(C2CC2)c2nc(N3C4CCC3CC(NCc3c(-c5ccccc5C(F)(F)F)noc3C3CC3)C4)sc2c1 (centres unmarked) [Example 1410] | 74.5% | < 1 nM
O=C(O)c1ccc2nc(N3C4CCC3CC(NCc3c(-c5c(F)cccc5F)noc3C3CC3)C4)sc2c1 (centres unmarked) [Example 1411] | 94.7% | 1 to 100 nM
CCOC(=O)c1ccc2nc(N3C4CCC3CC(NCc3c(-c5ccccc5C(F)(F)F)noc3C3CC3)C4)sc2c1 (centres unmarked) [Example 1412] | 75% | 100 to 1000 nM
O=C(O)c1ccc2nc(N3C4CCC3CC(NCc3c(-c5ccccc5C(F)(F)F)noc3C3CC3)C4)sc2c1 (centres unmarked) [Example 1413] | 90.7% | 1 to 100 nM
O=C(NS(=O)(=O)C1CC1)c1cc(C2CC2)c2nc(N3C4CCC3CC(NCc3c(-c5ccccc5C(F)(F)F)noc3C3CC3)C4)sc2c1 (centres unmarked) [Example 1414] | 89.5% | < 1 nM
CC(C)Oc1cc(C(=O)NS(=O)(=O)C2CC2)cc2sc(N3C4CCC3CC(NCc3c(-c5ccccc5C(F)(F)F)noc3C3CC3)C4)nc12 (centres unmarked) [Example 1415] | 106% | 1 to 100 nM
O=C(NS(=O)(=O)C1CC1)c1ccc2nc(N3C4CCC3CC(NCc3c(-c5ccccc5C(F)(F)F)noc3C3CC3)C4)sc2c1 (centres unmarked) [Example 1416] | 87.5% | 1 to 100 nM
O=C(NS(=O)(=O)C1CC1)c1ccc2nc(N3C4CCC3CC(NCc3c(-c5c(F)cccc5F)noc3C3CC3)C4)sc2c1 (centres unmarked) [Example 1417] | 69% | 1 to 100 nM
O=C(O)c1ccc2nc(N3C4CCC3CC(NCc3c(-c5ccccc5C(F)(F)F)noc3C3CC3)C4)oc2c1 (centres unmarked) [Example 1418] | 102% | 1 to 100 nM
